Measurements: US7605280B2, “Anthraquinone and its derivatives” (Biostatus Limited, priority 1998, dated 2009)
“And” between values parts separate entries of the source, which are not always exact repeats. Equal values may be shown once.

Assays:
SUD4 cells = test: FACScan (Cytometer C) flow cytometric analysis of DRAQ5-labelled cells; type: cell-based, human
Experimental: HL60 (human promyelocytic-leukaemia cell line) and SUD4 (human B cell lymphoma cell line) were grown as suspension cultures-in-RMPI medium with 10% foetal calf serum, 1 mM glutamine and antibiotics and incubated at 37° C. in an atmosphere of 5% CO2 in air. For flow cytometry experiments, asynchronously growing suspension cultures were diluted to 2.5-4>10^5 cells/ml at 2 h prior to drug treatment. Cell cycle-perturbed populations were obtained by treating SUD4 cells with the drug etoposide (VP-16-213) at 0.25 μM for 18h. Cells were treated with DRAQ5 and FDA as described above. Cell concentrations were determined using a Coulter counter and cell cycle distribution determined using an algorithm for the normal distibution of fluorescence intensity profiles for fluorochrome stained G1 and G2 cells.
(§1) Suspension cultures were analysed by flow cytometry without washing. Human blood was obtained using routine venepuncture of a healthy donor and samples manipulated using standard haematological procedures for the isolation of mononuclear blood cells and surface antigen recognition using antibody panels (see Table 1).
(§2) Cells were analysed using one of four flow cytometers according to the excitation requirements. • Cytometer A: Single beam high power 647 nm krypton laser excitation: The system was a custom-built cytometer and incorporated an Innova 3000K krypton laser (Coherent Corp., Palo Alto, Calif., USA) tuned to the 647 nm line. Forward light scatter, 90° light scatter and fluorescence emissions were collected for 1×10^4 cells using the 90° light scatter parameter as the master signal. The optical system permitted the analysis of various fluorescence emission wavelengths including: >715 nm (termed low infra-red) and, as reported here >780 nm fluorescence (infra-red ). Forward and 90° light scatter were analysed for the identification of cell debris. Laser power was set at 200 mW and linear amplifiers were used for the fluorescence signals. The analysis optics included a 675 nm cold dichroic mirror, ambient laboratory temperature was approximately 12° C. and the sheath reservoir was maintained at 10° C. Filters were supplied by Melles Griot. Median, mean and mode parameters were calculated for the distribution of fluorescence intensity-values throughout a given cell population. In all experiments, median and mean values produced very similar results. Median values alone are reported since this parameter is less affected by the presence of highly fluorescent cells beyond the upper limit for quantification. • Cytometer B: Dual beam low power 633 nm/high power 488 nm laser excitation: The system was a FACS 440 cell sorter (Becton Dickinson Inc., Cowley, UK) incorporating a Spectra Physics argon ion laser (max 500 mW output), tuned to the 488 nm line (100 mW output), and a secondary Spectra Physics 156 helium-neon laser emitting at 633 nm (emitting <5 mW), with a temporal beam separation of about 30 μsec. Forward light scatter, 90° light scatter and fluorescence emissions were collected for 1×10^4 cells using the forward light scatter parameter as the master signal from the primary 488 nm beam, while side scatter was collected through a 488/10 nm band-pass filter. The analysis optics included: i) a cold dichroic mirror (transmitting >675 nm), ii) fluorescence from fluorescein excited by the 488 nm beam detected at a PMT guarded by a 535/15 nm band-pass filter with no signal delay, and iii) a red-sensitive PMT with an appropriate delay, additionally guarded by a 620 nm long-pass filter, to detect the transmitted beam of DRAQ5-associated fluorescence at wavelengths beyond 675 nm (high-red and extending into the infra red region of the spectrum) Forward and 90° light scatter were analysed to exclude any cell debris. All parameters were acquired at 256 channel resolution with Consort 30 software (Becton Dickinson) and subsequently analysed with WinMDI software (J. Trotter, La Jolla, Calif.). […]

Granulocytes = test: as above; type: cell-based, human; conditions: 20 μM DRAQ5, 5 min
Experimental: as §1
as §2, with “Calif.). The system employed the same analysis optics when used in the single 488 nm beam mode but with no signal delay for the red-sensitive PMT. • Cytometer C: Single beam, low power 488 nm laser excitation: The system was a FACScan (Becton Dickinson; Inc., Cowley, UK) incorporating an argon ion laser (max 15 mW output), tuned to the 488 nm line. Forward light scatter, 90° light scatter and fluorescence emissions were collected for 1×10^4 cells using the forward light scatter parameter as the master signal. The standard analysis optics provided the FL1 […]/FL3 (red) PMT parameters with pulse analysis performed on the FL3 originating signals. • Cytometer D: Triple beam medium power 633 nm/medium power 488 nm/medium power multiline-UV laser excitation:” for “Calif.).”

`CN(C)CCNc1ccc(O)c2c1C(=O)c1c(O)ccc(NCCN(C)C)c1C2=O` [DRAQ5] was tested. Which “DRAQ5 concentration at which staining saturates” value (SUD4 cells; 5 min at room temperature, SUD4, lymphocytes, monocytes (FIG. 8)) did it give?
Its value is at least 10 µM.

And the “increase of mean fluorescence for G2 arrested populations” value (SUD4 cells; Preparation 1, VP-16 arrested versus asynchronous cells)?
Its value is 1.7 fold.

And the “Mean fluorescence intensity (±sd) of gated population” value (shortened to “Mean fluorescence intensity (±sd)”) (SUD4 cells; Preparation 1, 20 μM DRAQ5, 120 min, FL3)?
Its value is 645.1 ± 177.7.

What about the “Mean fluorescence intensity (±sd)” value (SUD4 cells; Preparation 1, cells pretreated 0.25 μM VP-16 × 18 h, 20 μM DRAQ5, 5 min) of the same compound?
The value was 891.8 ± 126.4.

And the “Mean fluorescence intensity (±sd)” value (SUD4 cells; Preparation 1 viable cultured cells, 20 μM DRAQ5, 5 min, FL3)?
The value was 499.4 ± 143.3 and 532.4 ± 148.3.

And the “Mean fluorescence intensity (±sd)” value (SUD4 cells; Preparation 2, cells pretreated 0.25 μM VP-16, 20 μM DRAQ5, 5 min)?
Its value is 902.7 ± 117.1.

What about the “Mean fluorescence intensity (±sd)” value (SUD4 cells; Preparation 2 surface antigen analysis, 20 μM DRAQ5, 5 min) of the same compound?
Its value is 564.3 ± 147.2.

What about the “Mean fluorescence intensity (±sd)” value (Granulocytes; Preparation 5 whole blood, viable cells) of the same compound?
The value was 248.4 ± 35.9.

What about the “Mean fluorescence intensity (±sd)” value (Granulocytes; Preparation 6 whole blood, cells lysed and fixed) of the same compound?
Its value is 254.3 ± 31.1.
